Several values for one entry are separate records, joined by “and”; a condition that tells them apart may be missing. Equal values may be shown once.
Experiments:
Format in all cases: physicochemical
[1] = 19F NMR chemical shifts and longitudinal relaxation rates at 188 MHz (4.7 T, 298K); conditions: for Longitudinal relaxation rate R1 ortho CF3 group / Longitudinal relaxation rate R1 other CF3 group / Limiting 19F chemical shift δF ortho CF3 group / Limiting 19F chemical shift δF other CF3 group if present: 188 MHz; for Limiting 19F chemical shift δF ortho CF3 group / Limiting 19F chemical shift δF other CF3 group if present: pH 5.5, referred to NaCF3CO2 δF −76.1 ppm
Procedure: ^19F NMR chemical shifts and longitudinal relaxation rates for various lanthanide complexes of L^1, L^2 and L^3 were measured at 188 MHz (4.7 T, 298K).

[2] = Eu luminescence emission intensity ratio versus pH; conditions: 298K, H2O, 0.1 M NaCl
[3] = 19F NMR pH titration, acid-base equilibrium fit; conditions: ratio of integrated 19F intensities −59/−53 and −65/−64 ppm
From the text: Solid lines: least-squares fits to the fast-exchange acid-base equilibrium equation for the chemical shift.
Solid lines: least-squares fits to the slow-exchange acid-base equilibrium equation for the NMR line intensity.
The NH group of [Ln.L^4] deprotonates in alkaline conditions, causing the CF3 group of [Ho.L^4] to shift from −55.1 ppm to −36.8 ppm under basic conditions (see FIG. 3). Because the acid-base equilibrium is fast in this system ([…] lanthanide re-coordination involved), only one signal is observed, with the chemical shift corresponding to the weighted average of the chemical shifts of the individual forms.
The higher pKa values in biofluids are the result of additional stabilization of the acidic form by carbonate coordination (see FIG. 4) (S. Aime, A. Barge, M. Botta, J. A. K. Howard, R. Kataky, M. P. Lowe, J. M. Moloney, D. Parker and A. S. de Sousa, Chem. Commun., 1999, 1047); (Y. Bretonniere, M. J. Cann, D. Parker and R. J. Slater, Org. Biomol. Chem., 2004, 2, 1624). The basic form exists as a mixture of two diastereomers, defined by the R or S configuration at the sulphur atom (Scheme 3). The experimental ratio is 6:1 (298 K, pH=8), resonating at −98 and −112 ppm respectively. […]

[4] = Comparative 19F NMR signal intensity of paramagnetic complexes versus diamagnetic [YL^1]; conditions: 188 MHz (4.7 T), 298K
Procedure: A comparative analysis examined the ortho-CF3 resonance in ^19F NMR spectra of the diamagnetic Y complex, [YL^1] (R1 0.93 s^−1, {linewidth, ω1/2=2 Hz}) and the terbium (R1 90 s^−1 {.ω1/2 90 Hz} and Dy (R1 77 s^−1 {.ω1/2 35 Hz}) analogues. Using a relaxation delay of 3 times T1, ^19F spectra were acquired over a common time interval of 30 minutes (2 mM complex, 188 MHz (4.7 T), 298K, typical S/N ratio per mM was 100:1). The relative signal intensity ratios per mM of complex (peak height times peak width at half height; processing used a line-broadening function equal to half of the observed linewidth, for the given complex resonance) for observation of the major ortho-CF3 resonance in [TmL^1], [DyL^1] and [TbL^1] versus the diamagnetic analogue, [YL^1], were 52:1 22:1 and 41:1 respectively. This is consistent with the ability to increase the number of scans acquired for the faster relaxing CF3 resonance in the paramagnetic complexes.

[5] = N-protonated complex, pH 5.5, 188 MHz

SMILES | Longitudinal relaxation rate R1 ortho CF3 group ([1]; pH 5.5) | Longitudinal relaxation rate R1 other CF3 group ([1]; pH 5.5) [s⁻¹] | Limiting 19F chemical shift δF ortho CF3 group [1] [ppm] | Limiting 19F chemical shift δF other CF3 group if present [1] [ppm] | R1 ortho CF3 group, N-protonated complex (value in parentheses) [1, 5] [s⁻¹] | R1 other CF3 group, N-protonated complex (value in parentheses) [1, 5] [s⁻¹] | δF ortho CF3 group, N-protonated complex (value in parentheses) [1, 5] [ppm] | δF other CF3 group, N-protonated complex (value in parentheses) [1, 5] [ppm] | Apparent protonation constant from Eu emission band intensity ratio [2] | Complex protonation constant pKMLH [3] | Linewidth ω1/2 of ortho-CF3 resonance [4] [Hz] | Longitudinal relaxation rate R1 ortho CF3 group ([1]; pH 5.5, listed as yttrium (III) complex of ligand L^1) [s⁻¹]
O=C([O-])CN1CCN(CC[N-]S(=O)(=O)c2cc(C(F)(F)F)ccc2C(F)(F)F)CCN(CC(=O)[O-])CCN(CC(=O)[O-])CC1.[Eu+3] [[EuL^2]^−] | 2.5 s⁻¹ | 1.5 | −53 | −65 | 2.2 | 1.2 | −59 | −64 | 5.5 | 5.5 (±0.05) | – | –
O=C([O-])CN1CCN(CC[N-]S(=O)(=O)c2cc(C(F)(F)F)ccc2C(F)(F)F)CCN(CC(=O)[O-])CCN(CC(=O)[O-])CC1.[Tb+3] [[TbL^2]^−] | 71 s⁻¹ | 23 | −159 | −45 | – | – | −59 | −64 | – | – | – | –
O=C([O-])CN1CCN(CC(=O)[O-])CCN(CC(=O)Nc2ccc(C(F)(F)F)cc2C(F)(F)F)CCN(CC(=O)[O-])CC1.[Tm+3] [[TmL^1]] | 16 s⁻¹ | 5.6 | −79.6 | −55 | – | – | – | – | – | – | – | –
O=C([O-])CN1CCN(CC(=O)[O-])CCN(CC(=O)Nc2ccc(C(F)(F)F)cc2C(F)(F)F)CCN(CC(=O)[O-])CC1.[Y+3] [[YL^1]] | 0.93 s⁻¹ and 0.9 s⁻¹ | ~0.9 | −61.3 | −63.1 | – | – | – | – | – | – | 2 | ~0.9
O=C([O-])CN1CCN(CC(=O)[O-])CCN(CC(=O)Nc2ccc(C(F)(F)F)cc2C(F)(F)F)CCN(CC(=O)[O-])CC1.[Yb+3] [[YbL^1]] | 4.6 s⁻¹ | 1.7 | −65.4 | −59.6 | – | – | – | – | – | – | – | –

From patent US20110021765A1, “FLUORINATED LANTHANIDE PROBES FOR 19F MAGNETIC RESONANCE APPLICATIONS” (priority 2007, published 2011)
